# Source: patent publication US20210069333A1, “CANNABINOIDS IN COMBINATION WITH NON-CANNABINOID CHEMOTHERAPEUTIC AGENTS” (GW Pharma Limited, priority 2008, published 2021)
# Key:
# [1] = test system: human U87 MG astrocytoma cells; experiment: Cell viability of human U87 MG astrocytoma cells in culture; format: cell-based; settings: for IC50: Homo sapiens, U-87 MG, read-out: IC50 μM (pure cannabinoids); for reduction of cell viability in combination with THC vs agent alone: U87 MG, combined with THC, FIGS. 4 and 5
# Protocol: Tetrahydrocannabinol (THC) and cannabidiol (CBD) in the form of cannabis plant extracts were dissolved in ethanol to a concentration of 100 mM this was stored at −20° C. until required.
# Before use the cannabis plant extracts were further diluted to the desired concentration, ensuring that the concentration of ethanol was below 0.001%.
# U87 human glioma cells were used throughout this experiment. The cells were maintained at 37° C. in a humidified atmosphere with 5% CO2 and 95% air.
# Cells were cultured in a 75 cm^2 culture flask in Dulbecco's Modified Eagle Medium (DMEM), which had been supplemented with 4 mM L-glutamine, 100 units/ml penicillin, […], 1% sodium pyruvate, 1% non-essential amino acids and 10% heat-inactivated fetal bovine serum.
# The viability of the human U87 MG astrocytoma cells were examined at various cannabinoid concentrations. The THC and CBD extracts were compared against pure THC and CBD.
# The methods used were as described in Example 1 above.
# The action of THC, CBD, and a 1:1 ratio mix of THC and CBD were studied at different concentrations on two cell lines: U87MG and T98G.
# Cell viability assays were performed as described in Example 1 above.
# [2] = test system: Human U87 MG astrocytoma cells xenografted to nude mice; experiment: U87 MG astrocytoma xenograft in nude mice, tumour volume; format: in vivo; settings: 15 mg/kg per day, injected peritumourally
# Protocol: Human U87 MG astrocytoma cells were xenografted to nude mice and the test compounds were injected peritumourally at a concentration of 15 mg/kg per day.
# U87MG cells = experiment: Induced cell death in U87MG cells with ATG1 silencing or pan-caspase inhibitor; settings: cell death induced by the THC:CBD combination, FIGS. 3b and 3c
Compound,IC50 [1] [µM],reduction of cell viability in combination with THC vs agent alone [1],also measured
"C=C(C)[C@@H]1CCC(C)=C[C@H]1c1c(O)cc(CCCCC)cc1O [CBD, cannabidiol]",0.47,,
"CCCCCc1cc(O)c2c(c1)OC(C)(C)[C@@H]1CCC(C)=C[C@@H]21 [THC, tetrahydrocannabinol]",0.37,,Tumour volume relative to zero time following 15 days of treatment [2]: 5.1 ± 0.4
N.N.[Cl][Pt][Cl] [cisplatin],,more efficient at reducing cell viability,
CC/C(=C(\c1ccccc1)c1ccc(OCCN(C)C)cc1)c1ccccc1 [tamoxifen],,more efficient at reducing cell viability,
Z-VAD,,,effect on induced cell death (U87MG cells): prevent induced cell death
